In PMC6001238, “Iterative Chemical Engineering of Vancomycin Leads to Novel Vancomycin Analogs With a High in Vitro Therapeutic Index” (Frontiers in Microbiology, 2018):
Values after ≈ are worked out from the molar mass of the structure shown.

Columns and labels:
E. faecalis VSE 1 = assay: MIC, broth microdilution, vancomycin-sensitive E. faecalis (VSE 1); format: cell-based, Enterococcus faecalis; conditions: for MIC: Enterococcus faecalis VSE 1 (vancomycin-sensitive), read-out: MIC; for MIC-fold improvement vs. vancomycin: VSE 1, ratio of MIC of vancomycin and MIC of analogue
How it was run: (§1)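 Broth microdilution per CLSI; controls = ultrapure water, non-inoculated broth. One set: + vancomycin 10 μM final alongside test analogue/control drug.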

E. faecalis VRE 6 = assay: MIC, broth microdilution, vancomycin-resistant E. faecalis VRE 6 (VanA); format: cell-based, Enterococcus faecalis; conditions: for MIC: Enterococcus faecalis VRE 6 (vancomycin-resistant), read-out: MIC; for MIC-fold improvement vs. vancomycin: VRE 6, ratio of MIC of vancomycin and MIC of analogue
How it was run: as §1

MRSA KS2 = assay: MIC, broth microdilution, MRSA KS2; format: cell-based, Staphylococcus aureus; conditions: for MIC-fold improvement vs. vancomycin: MRSA KS2, ratio of MIC of vancomycin and MIC of analogue; for MIC: Staphylococcus aureus MRSA KS2, read-out: MIC
How it was run: as §1

E. faecalis VRE 29 = assay: MIC, broth microdilution, vancomycin-resistant E. faecalis VRE 29 (VanA); format: cell-based, Enterococcus faecalis; conditions: for MIC: Enterococcus faecalis VRE 29 (vancomycin-resistant), read-out: MIC; for MIC-fold improvement vs. vancomycin: VRE 29, ratio of MIC of vancomycin and MIC of analogue
How it was run: as §1

[1] = tested on: L1210, CEM and HeLa cell lines; assay: Cytostatic activity, average or summary over L1210, CEM and HeLa; format: cell-based; conditions: average of L1210, CEM and HeLa; read-out: Toxicity (IC50) Average
How it was run: (§2)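 Suspensions (300,000–500,000 cells/mL) combined with equal volumes of diluted compound; 37°C; L1210 2 d / CEM 3 d / HeLa 4 d; counted by Coulter counter; IC50 vs untreated wells.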

E. faecalis VRE 37 = assay: MIC, broth microdilution, vancomycin-resistant E. faecalis VRE 37 (VanA); format: cell-based, Enterococcus faecalis; conditions: for MIC: Enterococcus faecalis VRE 37 (vancomycin-resistant), read-out: MIC; for MIC-fold improvement vs. vancomycin: VRE 37, ratio of MIC of vancomycin and MIC of analogue
How it was run: as §1

[2] = tested on: S. aureus VSSA (ATCC 6538); assay: MIC, broth microdilution, vancomycin-sensitive S. aureus (VSSA/MSSA, ATCC 6538); format: cell-based, Staphylococcus aureus; conditions: for MIC: Staphylococcus aureus VSSA, read-out: MIC; for MIC-fold improvement vs. vancomycin: VSSA, ratio of MIC of vancomycin and MIC of analogue
How it was run: as §1

MRSA KS89 = assay: MIC, broth microdilution, MRSA KS89; format: cell-based, Staphylococcus aureus; conditions: for MIC-fold improvement vs. vancomycin: MRSA KS8, ratio of MIC of vancomycin and MIC of analogue; for MIC: Staphylococcus aureus MRSA KS8, read-out: MIC
How it was run: as §1

[3] = tested on: human T-lymphocyte (CEM) cells; assay: Cytostatic activity, CEM cell proliferation; format: cell-based; conditions: mean ± SD of three experiments; highest concentration tested 250 µM; 3 days; read-out: Toxicity (IC50) CEM
How it was run: as §2

MRSA KS6 = assay: MIC, broth microdilution, MRSA KS6; format: cell-based, Staphylococcus aureus; conditions: for MIC-fold improvement vs. vancomycin: MRSA KS6, ratio of MIC of vancomycin and MIC of analogue; for MIC: Staphylococcus aureus MRSA KS6, read-out: MIC
How it was run: as §1

S. aureus VRSA = assay: MIC, broth microdilution, vancomycin-resistant S. aureus (VRSA); format: cell-based, Staphylococcus aureus; conditions: for MIC: Staphylococcus aureus VRSA, read-out: MIC; for MIC-fold improvement vs. vancomycin: VRSA, ratio of MIC of vancomycin and MIC of analogue
How it was run: as §1

E. faecalis VRE 53 = assay: MIC, broth microdilution, vancomycin-resistant E. faecalis VRE 53 (VanA); format: cell-based, Enterococcus faecalis; conditions: for MIC: Enterococcus faecalis VRE 53 (vancomycin-resistant), read-out: MIC; for MIC-fold improvement vs. vancomycin: VRE 53, ratio of MIC of vancomycin and MIC of analogue
How it was run: as §1

MRSA KS1 = assay: MIC, broth microdilution, MRSA KS1; format: cell-based, Staphylococcus aureus; conditions: for MIC-fold improvement vs. vancomycin: MRSA KS1, ratio of MIC of vancomycin and MIC of analogue; for MIC: Staphylococcus aureus MRSA KS1, read-out: MIC
How it was run: as §1

[4] = tested on: human cervix carcinoma (HeLa) cells; assay: Cytostatic activity, HeLa cell proliferation; format: cell-based; conditions: mean ± SD of three experiments; highest concentration tested 250 µM; 4 days; read-out: Toxicity (IC50) HeLa
How it was run: as §2

[5] = tested on: Murine leukemia (L1210) cells; assay: Cytostatic activity, L1210 cell proliferation; format: cell-based; conditions: mean ± SD of three experiments; highest concentration tested 250 µM; 2 days; read-out: Toxicity (IC50) L1210
How it was run: as §2

S. aureus VISA/HIP5827 = assay: MIC, broth microdilution, vancomycin-intermediate S. aureus VISA HIP5827; format: cell-based, Staphylococcus aureus; conditions: for MIC: Staphylococcus aureus VISA/HIP5827, read-out: MIC; for MIC-fold improvement vs. vancomycin: VISA/HIP5827, ratio of MIC of vancomycin and MIC of analogue
How it was run: as §1

SMILES	MIC (E. faecalis VSE 1) [µM]	MIC-fold improvement vs. vancomycin (E. faecalis VSE 1)	MIC (E. faecalis VRE 6) [µM]	MIC-fold improvement vs. vancomycin (E. faecalis VRE 6)	MIC-fold improvement vs. vancomycin (MRSA KS2)	MIC (MRSA KS2) [µM]	MIC (E. faecalis VRE 29) [µM]	MIC-fold improvement vs. vancomycin (E. faecalis VRE 29)	IC50 [1] [µM]	MIC (E. faecalis VRE 37) [µM]	MIC [2] [µM]	MIC-fold improvement vs. vancomycin [2]	MIC-fold improvement vs. vancomycin (MRSA KS89)	MIC (MRSA KS89) [µM]	IC50 [3] [µM]	MIC-fold improvement vs. vancomycin (MRSA KS6)	MIC (MRSA KS6) [µM]	MIC (S. aureus VRSA) [µM]	MIC-fold improvement vs. vancomycin (S. aureus VRSA)	MIC (E. faecalis VRE 53) [µM]	further results
CCCCCc1ccc(C(=O)NCCCNC(=O)C2NC(=O)C3NC(=O)C(NC(=O)C4NC(=O)C(CC(N)=O)NC(=O)C(NC(=O)C(CC(C)C)NC)C(O)c5ccc(c(Cl)c5)Oc5cc4cc(c5OC4OC(CO)C(O)C(O)C4OC4CC(C)(N)C(O)C(C)O4)Oc4ccc(cc4Cl)C3O)c3ccc(O)c(c3)-c3c(O)cc(O)cc32)cc1 (centres unmarked) [Vanc-49]	0.39 (≈ 0.655 µg/mL)	4	6.25 (≈ 10.5 µg/mL)	32	4	0.20 (≈ 0.336 µg/mL)	6.25 (≈ 10.5 µg/mL)	64	66	6.25 (≈ 10.5 µg/mL)	0.20 (≈ 0.336 µg/mL)	4	4	0.20 (≈ 0.336 µg/mL)	36 ± 8	4	0.20 (≈ 0.336 µg/mL)	0.39 (≈ 0.655 µg/mL)	256	6.25 (≈ 10.5 µg/mL)	MIC-fold improvement vs. vancomycin (E. faecalis VRE 37): 64; MIC-fold improvement vs. vancomycin (E. faecalis VRE 53): 64; MIC-fold improvement vs. vancomycin (MRSA KS1): >8; MIC (MRSA KS1): <0.10 µM; IC50 [4]: 99 ± 1 µM; IC50 [5]: 63 ± 8 µM; MIC (S. aureus VISA/HIP5827): 0.39 µM (≈ 0.655 µg/mL); MIC-fold improvement vs. vancomycin (S. aureus VISA/HIP5827): 16
CCCCOc1ccc(C(=O)NCCCNC(=O)C2NC(=O)C3NC(=O)C(NC(=O)C4NC(=O)C(CC(N)=O)NC(=O)C(NC(=O)C(CC(C)C)NC)C(O)c5ccc(c(Cl)c5)Oc5cc4cc(c5OC4OC(CO)C(O)C(O)C4OC4CC(C)(N)C(O)C(C)O4)Oc4ccc(cc4Cl)C3O)c3ccc(O)c(c3)-c3c(O)cc(O)cc32)cc1 (centres unmarked) [Vanc-50]	0.39 (≈ 0.656 µg/mL)	4	6.25 (≈ 10.5 µg/mL)	32	4	0.20 (≈ 0.336 µg/mL)	12.5 (≈ 21 µg/mL)	32	144	12.5 (≈ 21 µg/mL)	0.39 (≈ 0.656 µg/mL)	2	2	0.39 (≈ 0.656 µg/mL)	86 ± 2	2	0.39 (≈ 0.656 µg/mL)	0.78 (≈ 1.31 µg/mL)	128	12.5 (≈ 21 µg/mL)	MIC-fold improvement vs. vancomycin (E. faecalis VRE 53): 32; MIC-fold improvement vs. vancomycin (MRSA KS1): 4; MIC (MRSA KS1): 0.20 µM (≈ 0.336 µg/mL); IC50 [4]: 96 ± 4 µM; IC50 [5]: > 250 µM; MIC (S. aureus VISA/HIP5827): 0.78 µM (≈ 1.31 µg/mL); MIC-fold improvement vs. vancomycin (S. aureus VISA/HIP5827): 8
CN[C@H](CC(C)C)C(=O)N[C@H]1C(=O)N[C@@H](CC(N)=O)C(=O)N[C@H]2C(=O)N[C@H]3C(=O)N[C@H](C(=O)N[C@H](C(=O)NCCNC(=O)/C=C/c4ccc(Cl)cc4Cl)c4cc(O)cc(O)c4-c4cc3ccc4O)[C@H](O)c3ccc(c(Cl)c3)Oc3cc2cc(c3O[C@@H]2O[C@H](CO)[C@@H](O)[C@H](O)[C@H]2O[C@H]2C[C@](C)(N)[C@H](O)[C@H](C)O2)Oc2ccc(cc2Cl)[C@H]1O [Vanc-51]	0.39 (≈ 0.659 µg/mL)	4	6.25 (≈ 10.6 µg/mL)	32	4	0.20 (≈ 0.338 µg/mL)	12.5 (≈ 21.1 µg/mL)	32	89	12.5 (≈ 21.1 µg/mL)	0.39 (≈ 0.659 µg/mL)	2	4	0.20 (≈ 0.338 µg/mL)	82 ± 21	4	0.20 (≈ 0.338 µg/mL)	0.39 (≈ 0.659 µg/mL)	256	12.5 (≈ 21.1 µg/mL)	MIC-fold improvement vs. vancomycin (E. faecalis VRE 53): 32; MIC-fold improvement vs. vancomycin (MRSA KS1): 4; MIC (MRSA KS1): 0.20 µM (≈ 0.338 µg/mL); IC50 [4]: 106 ± 21 µM; IC50 [5]: 80 ± 13 µM; MIC (S. aureus VISA/HIP5827): 0.78 µM (≈ 1.32 µg/mL); MIC-fold improvement vs. vancomycin (S. aureus VISA/HIP5827): 8
CNC(CC(C)C)C(=O)NC1C(=O)NC(CC(N)=O)C(=O)NC2C(=O)NC3C(=O)NC(C(=O)NC(C(=O)NCCCNC(=O)c4nc5ccccc5[nH]4)c4cc(O)cc(O)c4-c4cc3ccc4O)C(O)c3ccc(c(Cl)c3)Oc3cc2cc(c3OC2OC(CO)C(O)C(O)C2OC2CC(C)(N)C(O)C(C)O2)Oc2ccc(cc2Cl)C1O (centres unmarked) [Vanc-52]	0.78 (≈ 1.29 µg/mL)	2	25 (≈ 41.2 µg/mL)	8	2	0.39 (≈ 0.643 µg/mL)	50 (≈ 82.5 µg/mL)	8	201	50 (≈ 82.5 µg/mL)	0.39 (≈ 0.643 µg/mL)	2	1	0.78 (≈ 1.29 µg/mL)	> 250	1	0.78 (≈ 1.29 µg/mL)	1.56 (≈ 2.57 µg/mL)	64	25 (≈ 41.2 µg/mL)	MIC-fold improvement vs. vancomycin (E. faecalis VRE 37): 8; MIC-fold improvement vs. vancomycin (E. faecalis VRE 53): 16; MIC-fold improvement vs. vancomycin (MRSA KS1): 2; MIC (MRSA KS1): 0.39 µM (≈ 0.643 µg/mL); IC50 [4]: 104 ± 13 µM; IC50 [5]: ≥ 250 µM; MIC (S. aureus VISA/HIP5827): 0.78 µM (≈ 1.29 µg/mL); MIC-fold improvement vs. vancomycin (S. aureus VISA/HIP5827): 8
